Test results as given in article PMC6990646 (ACS Omega, 2020).
Converted amounts (≈) assume the structure as drawn. “And” between values parts separate entries of the source, which are not always exact repeats. Identical values can stand only once.

Tests used:
HAV HM175 = assay: Plaque reduction assay against HAV HM175; assay type: cell-based, hepatitis A virus HM 175; conditions: hepatitis A virus HM 175, plaque reduction
[1] = test system: ED-43/SG-Feo (VYG) replicon of HCV genotype 4a; assay: Antiviral bioassay against ED-43/SG-Feo; assay type: cell-based
HAdV7 = assay: Plaque reduction assay against adenovirus 7; assay type: cell-based, human adenovirus type 7
Vero cell line = assay: Cytotoxicity test on Vero cell line; assay type: cell-based; conditions: herpes simplex virus table; host cells Vero
FRHK-4 cell line = assay: Cytotoxicity test on FRHK-4 cell line; assay type: cell-based; conditions: hepatitis A virus HM 175 columns; host cells FRHK4
Huh 7.5 cell line = assay: Cytotoxicity test on Huh 7.5 cell line; assay type: cell-based; conditions: HCVcc genotype 4 columns; host cells Huh 7.5
Hep2 cell line = assay: Cytotoxicity test on Hep2 cell line; assay type: cell-based; conditions: adenovirus type 7 columns; host cells Hep-2

With O=C(CNc1nc(NS(=O)(=O)c2ccccc2)ncc1-c1nc2ccccc2s1)c1ccc(Br)cc1 [9a, N-(5-(Benzo[d]thiazol-2-yl)-4-((2-(4-bromophenyl)-2-oxoethyl)amino)pyrimidin-2-yl)benzenesulfonamide] the IC50 (HAV HM175) was 78 µg/mL (≈ 134 µM), the IC50 ([1]; HCVcc genotype 4) was 120 µg/mL (≈ 207 µM) and the “mean % of reduction, HCVcc genotype 4” value ([1]; nontoxic dose of compound) was 50 ± 0.9%. For the same compound, the IC50 (HAdV7; adenovirus type 7, plaque reduction) was 120 µg/mL (≈ 207 µM), the “mean % of reduction, adenovirus type 7” value (HAdV7; nontoxic dose of compound) was 50 ± 0.9% and the CC50 (Vero cell line) was 270 µg/mL (≈ 465 µM). The CC50 (FRHK-4 cell line) was 240 µg/mL (≈ 413 µM), the CC50 (Huh 7.5 cell line) was 250 µg/mL (≈ 431 µM) and the CC50 (Hep2 cell line) was 260 µg/mL (≈ 448 µM). The IC50 (HSV-1; herpes simplex virus, plaque reduction) was 63 µg/mL (≈ 109 µM) and the “mean % of reduction, herpes simplex virus” value (HSV-1; nontoxic dose of compound) was 90% and 90 ± 2.5%.
